Measured values published in patent US20110262977A1, “PROCESS FOR PRODUCTION OF OPTICALLY ACTIVE AMINE DERIVATIVE” (Daicel Chemical Industries, Ltd., priority 2008, published 2011).

Assays:
[1] = tested on: imine reductase derived from Streptomyces sp. GF3546; assay: Substrate specificity of imine reductase: NADPH/NADH-dependent imine-reducing activity (decrease in absorbance at 340 nm); type: biochemical
Description: A reaction mixture containing the enzyme, 100 mM potassium phosphate buffer (pH 7.0), 0.2 mM NADPH, and 10 mM 2-methyl-1-pyrrolin was incubated at 30° C. The reaction mixture was assayed to determine the decrease in absorbance at 340 nm due to the decrease of NADPH. The amount of enzyme that catalyzes the decrease of 1 μmol of NADPH per minute was defined as 1 U.
(§1) The enzyme prepared as described in Example 4 was incubated with various imine compounds.

[2] = tested on: imine reductase derived from Streptomyces sp. GF3546; assay: Substrate specificity of imine reductase: NADP+-dependent amine-oxidizing activity (increase in absorbance at 340 nm); type: biochemical; details: oxidation, substrate 10 mM, coenzyme NADP+
Description: A reaction mixture containing 100 mM glycine/potassium chloride/potassium hydroxide buffer 10.5, 2.5 mM NADP^+, 10 mM (S)-2-methylpyrrolidine, and the enzyme was incubated at 30° C. The reaction mixture was assayed to determine the increase in absorbance at 340 nm due to the increase of NADPH. The amount of enzyme that catalyzes the increase of 1 μmol of NADPH per minute was defined as 1 U.
as §1

[3] = substrate 10 mM, coenzyme NADPH, activity of reducing 2-methyl-1-pyrroline taken as 100
[4] = first % column, activity of reducing 2-methyl-1-pyrroline taken as 100
[5] = second % column, (S)-2-methylpyrrolidine = 100.0

SMILES: CC(=Nc1ccccc1)c1ccccc1 (mixture of isomers) [N-((E/Z)-N-(1-phenylethylidene)aniline]
- Relative activity [1, 3]: 5.3%

SMILES: COc1cc2c(cc1OC)C(C)=NCC2 [1-Methyl-6,7-dimethoxy-3,4-dihydroisoquinoline]
- Relative activity ([1]; substrate 0.05 mM, coenzyme NADPH, activity of reducing 2-methyl-1-pyrroline taken as 100): 8.9%

SMILES: CC1=NCCC1 [2-Methyl-1-pyrroline]
- Relative activity ([1]; substrate 10 mM, coenzyme NADH, activity of reducing 2-methyl-1-pyrroline (NADPH) taken as 100): 0.0%
- Relative activity [1, 3]: 100.0%

SMILES: C[C@@H]1CCCN1 [(R)-2-Methylpyrrolidine]
- Relative activity [2, 4]: 7.7%
- Relative activity [2, 5]: 17.4%

SMILES: C[C@H]1CCCN1 [(S)-2-Methylpyrrolidine]
- Relative activity [2, 4]: 44.1%
- Relative activity [2, 5]: 100.0%

SMILES: C(=NCc1ccccc1)c1ccccc1 [N-Benzylidenebenzylamine]
- Relative activity [1, 3]: 20.9%
